Biological target: p38α (Homo sapiens, UniProt Q16539)
Test: Kinase assay (phosphorylation of ATF2 by activated p38α, ELISA readout at 405 nm)
Assay type: biochemical
Details: for IC50: activated p38α, ATF2 substrate, 100 μM ATP, 37° C., 1 hour, read-out: IC50 p 38
Procedure: • 1) The mononuclear cells (PBMCs) from human potassium-EDTA whole blood, diluted 1:3, are isolated by density gradient centrifugation (Histopaque®-1.077). The cells are washed twice with DPBS buffer, resuspended in macrophage SFM medium and adjusted to a cell count of 1*10^6 cells/ml. • The resulting PBMCs suspension (samples of in each case 390 μl) and the test substance are preincubated at 37° C. in a CO2 incubator (5% CO2; 95% moisture-saturated air) for 15 min. The samples are then stimulated with in each case 1 μl/ml of LPS (E. coli 026:B6) at 37° C. in a CO2 incubator (5% CO2; 95% moisture-saturated air) for 4 hours. The reaction is stopped by placing the samples on ice, adding DPBS buffer and then centrifuging at 15 880*g for 12 min. The amount of IL-1β and TNFα in the plasma supernatant is then determined by ELISA. • 2) Kinase assay • At 37° C., microtiter plates were coated for one hour with 50 μl of ATF2 solution (20 μg/ml). The plates were washed three times with water, and 50 μl of kinase mixture (50 mM tris-HCl 10 mM MgCl2, 10 mM β-glycerol phosphate, 10 μg/ml of BSA, 1 mM DTT, 100 μM ATP, 100 μM Na3VO4, 10 ng of activated p38α) with or without inhibitor were added into the wells, and the plates were incubated at 37° C. for 1 hour. The plates were washed three times and then incubated with phosphorus-ATF-2 antibody at 37° C. for one hour. The plates were once more washed three times, and goat-antirabbit IgG labeled with alkaline phosphatase was added at 37° C. for one hour (to fix the antibody-phosphorylated protein/substrate complex). The plates were washed three times, and the alkaline phosphatase/substrate solution (3 mM 4-NPP, 50 mM NaHCO3, 50 mM MgCl2, 100 μl/well) was added at 37° C. for 1.5 hours. […] The IC50 values were calculated.

Sequence of p38α (Q16539 whole entry): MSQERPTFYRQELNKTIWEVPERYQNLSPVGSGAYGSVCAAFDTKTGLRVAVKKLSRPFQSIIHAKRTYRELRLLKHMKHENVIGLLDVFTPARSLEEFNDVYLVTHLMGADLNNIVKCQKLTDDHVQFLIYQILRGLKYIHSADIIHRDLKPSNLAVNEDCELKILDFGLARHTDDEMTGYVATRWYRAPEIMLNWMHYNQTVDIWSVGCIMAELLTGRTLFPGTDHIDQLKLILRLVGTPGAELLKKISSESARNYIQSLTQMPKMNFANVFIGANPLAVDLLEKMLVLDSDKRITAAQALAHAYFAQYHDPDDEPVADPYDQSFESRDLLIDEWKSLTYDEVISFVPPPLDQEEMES

IC50 | inhibition at 10 µM (at 10^−5 mol/l, read-out: % inhibition of p 38) | Compound
30 µM | – | CC(=O)Nc1cc(-c2onc(-c3ccncc3)c2-c2ccc(F)cc2)ccn1 [Compound 3, N-{4-[4-(4-fluorophenyl)-3-pyridin-4-ylisoxazol-5-yl]pyridine-2-yl}acetamide]
4 µM | – | CN(C)Cc1onc(-c2ccncc2)c1-c1ccc(F)cc1 [Compound 4, [4-(4-fluorophenyl)-3-pyridin-4-ylisoxazol-5-ylmethyl]dimethylamine]
22 µM | – | Fc1ccc(-c2c(-c3ccncc3)noc2-c2ccccc2)cc1 [Compound 5, 4-[4-(4-fluorophenyl)-5-phenylisoxazol-3-yl]pyridine]
22 µM | – | Fc1ccc(-c2c(-c3ccncc3)noc2-c2ccco2)cc1 [Compound 6, 4-[4-(4-fluorophenyl)-5-furan-2-ylisoxazol-3-yl]pyridine]
28 µM | – | Fc1ccc(-c2c(-c3ccncc3)noc2C2CC2)cc1 [Compound 7, 4-[5-cyclopropyl-4-(4-fluorophenyl)isozazol-3-yl]pyridine]
27 µM | – | CN(C)c1ccc(-c2onc(-c3ccncc3)c2-c2ccc(F)cc2)cc1 [Compound 8, {4-[4-(4-fluorophenyl)-3-pyridin-4-ylisoxazol-5-yl]phenyl}dimethylamine]
10 µM | – | Fc1ccc(-c2c(-c3ccncc3)noc2N2CCCCC2)cc1 [Compound 9, 4-[4-(4-fluorophenyl)-5-piperidin-1-ylisoxazol-3-yl]pyridine]
10 µM | – | COc1ccc(-c2onc(-c3ccncc3)c2-c2ccc(F)cc2)cc1 [Compound 10, 4-[4-(4-fluorophenyl)-5-(4-methoxyphenyl)isoxazol-3-yl]pyridine]
– | 43.6% | Fc1ccc(-c2noc(-c3ccc(F)cc3)c2-c2ccncc2)cc1 [Compound 14, 4-[3,5-Bis(4-fluorophenyl)isoxazol-4-yl]pyridine]

Compound | IC50 | inhibition at 10 µM (at 10^−5 mol/l, read-out: % inhibition of p 38)
4-[5-(ethoxyphenyl)-4-(4-fluorophenyl)isoxazol-3-yl]pyridine [Compound 11] | 10 µM | –
Cc1onc(-c2ccncc2)c1-c1ccc(F)cc1 [Compound 1, 4-[4-(4-fluorophenyl)-5-methylisoxazol-3-yl]pyridine] | 67.5 µM | –
